Reference: PubChem BioAssay (NCI)
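All cell lines were grown in 96-well plates and treated with compound for 48 hours. GI50 is the concentration that inhibits growth by half. TGI denotes the concentration required for complete inhibition of growth.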

How the values were obtained:
Test in all cases: NCI anticancer screen, dose series, 48 h
EKVX NSCLC = system: EKVX NSCLC
HCT-15 colon = system: HCT-15 colon
SR leukemia = system: SR leukemia
A498 renal = system: A498 renal
K-562 leukemia = system: K-562 leukemia
SF-539 CNS = system: SF-539 CNS
SF-295 CNS = system: SF-295 CNS
OVCAR-4 ovarian = system: OVCAR-4 ovarian
NCI-H522 lung = system: NCI-H522 lung
OVCAR-3 ovarian = system: OVCAR-3 ovarian
SK-MEL-2 melanoma = system: SK-MEL-2 melanoma
MDA-MB-435 = system: MDA-MB-435
RPMI-8226 leukemia = system: RPMI-8226 leukemia
OVCAR-5 ovarian = system: OVCAR-5 ovarian
SK-MEL-5 melanoma = system: SK-MEL-5 melanoma
CCRF-CEM leukemia = system: CCRF-CEM leukemia
NCI-H23 lung = system: NCI-H23 lung
OVCAR-8 ovarian = system: OVCAR-8 ovarian
UACC-62 melanoma = system: UACC-62 melanoma
NCI-H226 lung = system: NCI-H226 lung
SN12C renal = system: SN12C renal
MCF7 breast = system: MCF7 breast
HOP-62 NSCLC = system: HOP-62 NSCLC
MDA-MB-231 breast = system: MDA-MB-231 breast
UO-31 renal = system: UO-31 renal
TK-10 renal = system: TK-10 renal
A549 NSCLC = system: A549 NSCLC
U251 CNS = system: U251 CNS
SNB-75 CNS = system: SNB-75 CNS
KM12 colon = system: KM12 colon
SK-MEL-28 melanoma = system: SK-MEL-28 melanoma
DU-145 prostate = system: DU-145 prostate
UACC-257 melanoma = system: UACC-257 melanoma
RXF 393 renal = system: RXF 393 renal
HL-60(TB) leukemia = system: HL-60(TB) leukemia
HCT-116 colon = system: HCT-116 colon
HT29 colon = system: HT29 colon
CAKI-1 renal = system: CAKI-1 renal
HS 578T breast = system: HS 578T breast
T-47D breast = system: T-47D breast
BT-549 breast = system: BT-549 breast
SF-268 CNS = system: SF-268 CNS
MALME-3M melanoma = system: MALME-3M melanoma
ACHN renal = system: ACHN renal
LOX IMVI melanoma = system: LOX IMVI melanoma
MOLT-4 leukemia = system: MOLT-4 leukemia
SW-620 colon = system: SW-620 colon
M14 melanoma = system: M14 melanoma
NCI-H460 lung = system: NCI-H460 lung
IGROV1 ovarian = system: IGROV1 ovarian
PC-3 prostate = system: PC-3 prostate
NCI/ADR-RES ovarian = system: NCI/ADR-RES ovarian
SNB-19 CNS = system: SNB-19 CNS
COLO 205 colon = system: COLO 205 colon
HCC-2998 colon = system: HCC-2998 colon
786-0 renal = system: 786-0 renal
SK-OV-3 ovarian = system: SK-OV-3 ovarian

Question: With `CNc1nc(C)c(-c2nc(Nc3cccc(S(N)(=O)=O)c3)ncc2F)s1` as the compound, how does the GI50 (EKVX NSCLC) read?
Answer: 0.0747 µM

Question: And the TGI (EKVX NSCLC)?
Answer: 3.78 µM

Question: What about the GI50 (HCT-15 colon) of the same compound?
Answer: 0.048 µM

Question: And the TGI (HCT-15 colon)?
Answer: 12.1 µM

Question: What about the GI50 (SR leukemia) of the same compound?
Answer: 0.0171 µM

Question: What about the TGI (SR leukemia) of the same compound?
Answer: 1.15 µM

Question: What about the GI50 (A498 renal) of the same compound?
Answer: < 0.0168 µM

Question: And the TGI (A498 renal)?
Answer: < 0.0308 µM

Question: What about the GI50 (K-562 leukemia) of the same compound?
Answer: 0.0668 µM

Question: And the TGI (K-562 leukemia)?
Answer: 24.4 µM

Question: What about the GI50 (SF-539 CNS) of the same compound?
Answer: 0.0233 µM

Question: What about the TGI (SF-539 CNS) of the same compound?
Answer: 0.0664 µM

Question: And the GI50 (SF-295 CNS)?
Answer: 0.0406 µM

Question: And the TGI (SF-295 CNS)?
Answer: 6.79 µM

Question: What about the GI50 (OVCAR-4 ovarian) of the same compound?
Answer: 0.0524 µM

Question: And the TGI (OVCAR-4 ovarian)?
Answer: 12.5 µM

Question: What about the GI50 (NCI-H522 lung) of the same compound?
Answer: 0.0449 µM

Question: And the TGI (NCI-H522 lung)?
Answer: 0.137 µM

Question: And the GI50 (OVCAR-3 ovarian)?
Answer: 0.0302 µM

Question: And the TGI (OVCAR-3 ovarian)?
Answer: 14.4 µM

Question: And the GI50 (SK-MEL-2 melanoma)?
Answer: 0.0358 µM

Question: What about the TGI (SK-MEL-2 melanoma) of the same compound?
Answer: 0.0939 µM

Question: And the GI50 (MDA-MB-435)?
Answer: 0.0379 µM

Question: What about the TGI (MDA-MB-435) of the same compound?
Answer: 2.45 µM

Question: What about the GI50 (RPMI-8226 leukemia) of the same compound?
Answer: 0.0958 µM

Question: What about the TGI (RPMI-8226 leukemia) of the same compound?
Answer: 0.273 µM

Question: And the GI50 (OVCAR-5 ovarian)?
Answer: 0.0324 µM

Question: What about the TGI (OVCAR-5 ovarian) of the same compound?
Answer: 15.1 µM

Question: What about the GI50 (SK-MEL-5 melanoma) of the same compound?
Answer: 0.0296 µM

Question: And the TGI (SK-MEL-5 melanoma)?
Answer: 0.639 µM

Question: And the GI50 (CCRF-CEM leukemia)?
Answer: 0.0358 µM

Question: What about the TGI (CCRF-CEM leukemia) of the same compound?
Answer: > 40.9 µM

Question: What about the GI50 (NCI-H23 lung) of the same compound?
Answer: 0.0432 µM

Question: What about the TGI (NCI-H23 lung) of the same compound?
Answer: 0.171 µM

Question: What about the GI50 (OVCAR-8 ovarian) of the same compound?
Answer: 0.0394 µM

Question: What about the TGI (OVCAR-8 ovarian) of the same compound?
Answer: 15.9 µM

Question: What about the GI50 (UACC-62 melanoma) of the same compound?
Answer: 0.0224 µM

Question: What about the TGI (UACC-62 melanoma) of the same compound?
Answer: 0.0741 µM

Question: What about the GI50 (NCI-H226 lung) of the same compound?
Answer: 0.0219 µM

Question: And the TGI (NCI-H226 lung)?
Answer: 3.54 µM

Question: And the GI50 (SN12C renal)?
Answer: 0.0313 µM

Question: What about the TGI (SN12C renal) of the same compound?
Answer: 2.69 µM

Question: What about the GI50 (MCF7 breast) of the same compound?
Answer: 0.0255 µM

Question: What about the TGI (MCF7 breast) of the same compound?
Answer: 4.64 µM

Question: What about the GI50 (HOP-62 NSCLC) of the same compound?
Answer: < 0.0201 µM

Question: And the GI50 (MDA-MB-231 breast)?
Answer: 0.0416 µM

Question: What about the TGI (MDA-MB-231 breast) of the same compound?
Answer: 5.98 µM

Question: What about the GI50 (UO-31 renal) of the same compound?
Answer: 0.035 µM

Question: What about the TGI (UO-31 renal) of the same compound?
Answer: 0.505 µM

Question: What about the GI50 (TK-10 renal) of the same compound?
Answer: 0.0644 µM

Question: What about the TGI (TK-10 renal) of the same compound?
Answer: 1.17 µM

Question: And the GI50 (A549 NSCLC)?
Answer: 0.0874 µM

Question: And the TGI (A549 NSCLC)?
Answer: 15.2 µM

Question: And the GI50 (U251 CNS)?
Answer: 0.0268 µM

Question: What about the TGI (U251 CNS) of the same compound?
Answer: 11.5 µM

Question: What about the GI50 (SNB-75 CNS) of the same compound?
Answer: 0.044 µM

Question: And the TGI (SNB-75 CNS)?
Answer: 0.147 µM

Question: And the GI50 (KM12 colon)?
Answer: 0.0368 µM

Question: And the TGI (KM12 colon)?
Answer: 4.43 µM

Question: What about the GI50 (SK-MEL-28 melanoma) of the same compound?
Answer: 0.0319 µM

Question: And the TGI (SK-MEL-28 melanoma)?
Answer: 0.278 µM

Question: And the GI50 (DU-145 prostate)?
Answer: 0.0358 µM

Question: What about the TGI (DU-145 prostate) of the same compound?
Answer: 17.6 µM

Question: What about the GI50 (UACC-257 melanoma) of the same compound?
Answer: 0.0657 µM

Question: And the TGI (UACC-257 melanoma)?
Answer: 0.232 µM

Question: And the GI50 (RXF 393 renal)?
Answer: 0.0176 µM

Question: And the TGI (RXF 393 renal)?
Answer: 0.0301 µM

Question: What about the GI50 (HL-60(TB) leukemia) of the same compound?
Answer: 0.0309 µM

Question: What about the TGI (HL-60(TB) leukemia) of the same compound?
Answer: 0.108 µM

Question: And the GI50 (HCT-116 colon)?
Answer: < 0.0161 µM

Question: And the TGI (HCT-116 colon)?
Answer: 12.5 µM

Question: And the GI50 (HT29 colon)?
Answer: 0.0605 µM

Question: What about the TGI (HT29 colon) of the same compound?
Answer: 10.8 µM

Question: And the GI50 (CAKI-1 renal)?
Answer: 0.052 µM

Question: And the TGI (CAKI-1 renal)?
Answer: 37.2 µM

Question: And the GI50 (HS 578T breast)?
Answer: 0.0429 µM

Question: What about the TGI (HS 578T breast) of the same compound?
Answer: 3.97 µM

Question: What about the GI50 (T-47D breast) of the same compound?
Answer: 0.0274 µM

Question: And the TGI (T-47D breast)?
Answer: 0.472 µM

Question: And the GI50 (BT-549 breast)?
Answer: 0.0228 µM

Question: What about the TGI (BT-549 breast) of the same compound?
Answer: 0.0753 µM

Question: What about the GI50 (SF-268 CNS) of the same compound?
Answer: 0.0287 µM

Question: And the TGI (SF-268 CNS)?
Answer: 1.44 µM

Question: What about the GI50 (MALME-3M melanoma) of the same compound?
Answer: 0.0797 µM

Question: What about the TGI (MALME-3M melanoma) of the same compound?
Answer: 0.187 µM

Question: And the GI50 (ACHN renal)?
Answer: 0.0266 µM

Question: And the TGI (ACHN renal)?
Answer: 11.7 µM

Question: And the GI50 (LOX IMVI melanoma)?
Answer: 0.0223 µM

Question: What about the TGI (LOX IMVI melanoma) of the same compound?
Answer: 3.94 µM

Question: What about the GI50 (MOLT-4 leukemia) of the same compound?
Answer: 0.0309 µM

Question: And the TGI (MOLT-4 leukemia)?
Answer: 0.185 µM

Question: What about the GI50 (SW-620 colon) of the same compound?
Answer: 0.0283 µM

Question: What about the TGI (SW-620 colon) of the same compound?
Answer: 14.7 µM

Question: What about the GI50 (M14 melanoma) of the same compound?
Answer: 0.0305 µM

Question: And the TGI (M14 melanoma)?
Answer: 1.58 µM

Question: What about the GI50 (NCI-H460 lung) of the same compound?
Answer: 0.0776 µM

Question: And the TGI (NCI-H460 lung)?
Answer: 3.89 µM

Question: What about the GI50 (IGROV1 ovarian) of the same compound?
Answer: 0.0349 µM

Question: And the TGI (IGROV1 ovarian)?
Answer: 12.3 µM

Question: And the GI50 (PC-3 prostate)?
Answer: 0.0388 µM

Question: What about the TGI (PC-3 prostate) of the same compound?
Answer: 1.27 µM

Question: And the GI50 (NCI/ADR-RES ovarian)?
Answer: 0.0886 µM

Question: What about the TGI (NCI/ADR-RES ovarian) of the same compound?
Answer: 9.17 µM

Question: What about the GI50 (SNB-19 CNS) of the same compound?
Answer: 0.0273 µM

Question: And the TGI (SNB-19 CNS)?
Answer: 14.1 µM

Question: What about the GI50 (COLO 205 colon) of the same compound?
Answer: 0.0212 µM

Question: And the TGI (COLO 205 colon)?
Answer: 0.0532 µM

Question: And the GI50 (HCC-2998 colon)?
Answer: 0.0408 µM

Question: What about the TGI (HCC-2998 colon) of the same compound?
Answer: 2.48 µM

Question: What about the GI50 (786-0 renal) of the same compound?
Answer: 0.0248 µM

Question: And the TGI (786-0 renal)?
Answer: 3.42 µM

Question: And the GI50 (SK-OV-3 ovarian)?
Answer: 0.0925 µM

Question: What about the TGI (SK-OV-3 ovarian) of the same compound?
Answer: 12.4 µM
